Patent publication US11613547B2 (priority 2019, dated 2023)
“Also recorded” adds a separate entry of the source.

What was measured:
Format in all cases: cell-based
hMOR [1] = biological target: T1, hMOR (Homo sapiens, UniProt P35372); assay: cell-based; details: for Emax: HEK-293T, read-out: Gi Emax hMOR; for EC50: read-out: Gi EC50 hMOR
T1 construct: expressed in transfected cells; host or cells: HEK 293T (ATCC CRL-11268), transient

hKOR [2] = biological target: T2, hKOR (Homo sapiens, UniProt P41145); assay: Tango β-arrestin recruitment assay, hKOR
T2 construct: expressed in transfected cells; host or cells: HEK 293T (ATCC CRL-11268), transient
T2 sequence (P41145 whole entry): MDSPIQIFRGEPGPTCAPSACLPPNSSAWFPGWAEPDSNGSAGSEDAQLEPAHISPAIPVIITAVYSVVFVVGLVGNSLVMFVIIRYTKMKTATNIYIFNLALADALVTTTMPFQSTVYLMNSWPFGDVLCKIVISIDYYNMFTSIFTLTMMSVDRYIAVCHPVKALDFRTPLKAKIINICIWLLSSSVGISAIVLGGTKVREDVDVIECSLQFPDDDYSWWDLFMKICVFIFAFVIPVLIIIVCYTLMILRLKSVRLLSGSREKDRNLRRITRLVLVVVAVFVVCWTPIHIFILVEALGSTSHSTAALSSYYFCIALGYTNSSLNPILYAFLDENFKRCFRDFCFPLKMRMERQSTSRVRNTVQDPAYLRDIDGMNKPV

hMOR [3] = biological target: T1, hMOR; assay: Tango β-arrestin recruitment assay, hMOR; details: Tango
hKOR [4] = biological target: T2, hKOR; assay: cAMP inhibition assay (GloSensor, HEK 293T), hKOR; details: for Emax: HEK-293T, read-out: Gi Emax hKOR; for Bias factor toward G protein, hKOR: cAMP inhibition vs Tango, against U50,488H as control

T1 sequence (P35372 whole entry): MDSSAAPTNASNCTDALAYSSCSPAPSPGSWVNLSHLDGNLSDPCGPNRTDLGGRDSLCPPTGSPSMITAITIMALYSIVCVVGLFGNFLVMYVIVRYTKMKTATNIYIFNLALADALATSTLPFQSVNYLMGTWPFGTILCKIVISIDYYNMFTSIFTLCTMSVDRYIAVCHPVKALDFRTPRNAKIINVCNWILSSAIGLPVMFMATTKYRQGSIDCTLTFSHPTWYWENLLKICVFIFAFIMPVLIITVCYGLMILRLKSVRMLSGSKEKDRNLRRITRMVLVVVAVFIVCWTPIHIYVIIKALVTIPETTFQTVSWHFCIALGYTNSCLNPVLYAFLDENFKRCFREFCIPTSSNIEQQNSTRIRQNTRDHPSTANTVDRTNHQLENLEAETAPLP

SMILES | Gi pEC50±SEM hMOR (hMOR [1]) | Emax (hMOR [1]) [%] | EC50 (hMOR [1]) [nM] | Emax (hKOR [2]) [%] | Arrestin pEC50±SEM hKOR (hKOR [2]; Tango, WT-hKOR) | EC50 (hKOR [2]; Tango, WT-hKOR) [nM] | arrestin recruitment at hMOR (hMOR [3]) | Emax (hKOR [4]) [%] | Gi pEC50±SEM hKOR (hKOR [4]; cAMP inhibition) | Bias factor toward G protein, hKOR (hKOR [4]) | EC50 (hKOR [4]; cAMP inhibition, read-out: Gi EC50 hKOR) [nM]
NCc1ccc(C(=O)N[C@@H]2CC[C@H]3[C@H]4Cc5ccc(O)c6c5[C@@]3(CCN4CC3CC3)[C@H]2O6)cc1 [MP1209, 4-(aminomethyl)-N-((4R,4aR,7R,7aR,12bS)-3-(cyclopropylmethyl)-9-hydroxy-2,3,4,4a,5,6,7,7a-octahydro-1H-4,12-methano[1]benzofuro[3,2-e]isoquinolin-7-yl)benzamide] | 9.61±0.04 | 98.5 ± 0.96 | 0.25 | 67 ± 3 | 9.43±0.19 | 0.37 | null arrestin recruitment; also recorded: no arrestin recruitment was observed | 100 ± 1.23 | 10.6±0.05 | 0.6 | 0.024
O=C(N[C@@H]1CC[C@H]2[C@H]3Cc4ccc(O)c5c4[C@@]2(CCN3CC2CC2)[C@H]1O5)c1cccc(CO)c1 [MP1210, N-((4R,4aR,7R,7aR,12bS)-3-(cyclopropylmethyl)-9-hydroxy-2,3,4,4a,5,6,7,7a-octahydro-1H-4,12-methano[1]benzofuro[3,2-e]isoquinolin-7-yl)-3-(hydroxymethyl)benzamide] | 9.81±0.05 | 94.6 ± 0.98 | 0.15 | 63 ± 3.3 | 8.94±0.17 | – | null arrestin recruitment; also recorded: no arrestin recruitment was observed | 101 ± 1.1 | 10.6±0.05 | 1.2 | –
